pIC50: −log10 of the molar value. One block for each molecule: values may come before it. Active and inactive are the calls of the source. No cut-off for these calls is given here.
Assays:
[1] = target: P-selectin (Homo sapiens) (UniProt P16109); test: Inhibition of human recombinant P-selectin expressed in CHO cells by Biacore assay at 6 mM
[2] = test system: HUVEC; test: Inhibition of neutrophil adhesion to IL4-stimulated HUVEC by leukocyte rolling assay; format: functional, cell-based; details: Homo sapiens
[3] = target: Dihydroorotate dehydrogenase (quinone), mitochondrial (Homo sapiens, UniProt Q02127)
Description: Inhibition of human recombinant DHOD expressed in Escherichia coli

[4] = AUC in Sprague-Dawley rat at 1 mg/kg, iv; format: ADME, organism-based; parameters: dose 1 mg/kg, route intravenous; details: plasma
[5] = Clearance in Sprague-Dawley rat at 1 mg/kg, iv; format: ADME, organism-based; parameters: dose 1 mg/kg, route intravenous; details: in vivo
[6] = Cmax in Sprague-Dawley rat at 1 mg/kg, iv; format: ADME, organism-based; parameters: dose 1 mg/kg, route intravenous; details: in vivo
[7] = target: Dihydroorotate dehydrogenase (quinone), mitochondrial (Rattus norvegicus) (UniProt Q63707)
Description: Antagonist activity against DHOD in rat

[8] = test system: Rattus norvegicus; test: Inhibition of carrageenan-induced paw edema in Sprague-Dawley rat at 10 mg/kg, po; format: functional
[9] = target: Cytochrome P450 2D6 (Homo sapiens, UniProt P10635); test: Inhibition of human CYP2D6; format: ADME
[10] = target: Cytochrome P450 3A4 (Homo sapiens, UniProt P08684); test: Inhibition of human CYP3A4; format: ADME
[11] = test system: Rattus norvegicus; test: Inhibition of carrageenan-induced paw edema in Sprague-Dawley rat at 5 mg/kg, po; format: functional
[12] = test system: Rattus norvegicus; test: Inhibition of carrageenan-induced paw edema in Sprague-Dawley rat at 1 mg/kg, po; format: functional
[13] = target: Cytochrome P450 2C19 (Homo sapiens, UniProt P33261); test: Inhibition of human CYP2C19; format: ADME
[14] = species: Rattus norvegicus; test: Toxicity in Lewis rat Freund's complete adjuvant-induced arthritis model; format: organism-based; details: in vivo
[15] = target: T1, Cytochrome P450 1A2 (Homo sapiens, UniProt P05177); test: Inhibition of human CYP1A2; format: ADME
T1 sequence (P05177 whole entry): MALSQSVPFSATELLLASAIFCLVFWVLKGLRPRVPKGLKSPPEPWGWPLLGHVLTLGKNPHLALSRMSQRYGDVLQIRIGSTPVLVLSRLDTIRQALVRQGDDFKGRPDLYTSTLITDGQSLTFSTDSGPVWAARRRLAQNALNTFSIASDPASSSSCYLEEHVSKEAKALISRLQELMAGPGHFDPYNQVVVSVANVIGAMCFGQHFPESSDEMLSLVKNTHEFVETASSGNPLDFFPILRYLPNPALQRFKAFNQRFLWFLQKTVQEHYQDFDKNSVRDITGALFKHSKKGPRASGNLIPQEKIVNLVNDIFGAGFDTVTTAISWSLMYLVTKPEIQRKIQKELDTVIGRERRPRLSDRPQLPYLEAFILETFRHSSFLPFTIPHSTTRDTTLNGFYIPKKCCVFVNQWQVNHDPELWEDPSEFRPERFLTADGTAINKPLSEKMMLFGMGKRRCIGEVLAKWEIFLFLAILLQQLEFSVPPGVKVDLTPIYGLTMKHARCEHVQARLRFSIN

[16] = target: T2, Cytochrome P450 2C8 (Homo sapiens, UniProt P10632); test: Inhibition of human CYP2C8; format: ADME
T2 sequence (P10632 whole entry): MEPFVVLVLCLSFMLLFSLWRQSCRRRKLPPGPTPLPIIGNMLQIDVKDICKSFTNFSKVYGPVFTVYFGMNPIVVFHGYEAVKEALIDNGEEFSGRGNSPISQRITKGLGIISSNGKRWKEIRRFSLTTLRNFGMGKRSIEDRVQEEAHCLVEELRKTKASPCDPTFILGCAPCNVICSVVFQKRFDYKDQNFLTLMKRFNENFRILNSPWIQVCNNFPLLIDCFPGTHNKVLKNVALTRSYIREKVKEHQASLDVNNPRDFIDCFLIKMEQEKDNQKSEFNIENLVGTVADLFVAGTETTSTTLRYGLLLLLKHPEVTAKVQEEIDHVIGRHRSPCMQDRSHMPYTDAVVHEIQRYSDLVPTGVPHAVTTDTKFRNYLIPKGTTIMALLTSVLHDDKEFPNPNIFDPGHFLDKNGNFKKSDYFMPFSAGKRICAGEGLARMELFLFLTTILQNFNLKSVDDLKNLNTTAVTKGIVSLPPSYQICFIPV

[17] = target: Cytochrome P450 2C9 (Homo sapiens, UniProt P11712); test: Inhibition of human CYP2C9; format: ADME
[18] = test system: Rattus norvegicus; test: Inhibition of carrageenan-induced paw edema in Sprague-Dawley rat at 0.5 mg/kg, po; format: functional
[19] = test system: Rattus norvegicus; test: Plasma concentration in Lewis rat Freund's complete adjuvant-induced arthritis model at 10 mg/kg, po; format: ADME, organism-based; parameters: dose 10 mg/kg, route oral; details: in vivo
[20] = test system: Rattus norvegicus; test: Inhibition of carrageenan-induced paw edema in Sprague-Dawley rat at 50 mg/kg, po; format: functional
[21] = target: T3, Cytochrome P450 2A6 (Homo sapiens, UniProt P11509); test: Inhibition of human CYP2A6; format: ADME
T3 sequence (P11509 whole entry): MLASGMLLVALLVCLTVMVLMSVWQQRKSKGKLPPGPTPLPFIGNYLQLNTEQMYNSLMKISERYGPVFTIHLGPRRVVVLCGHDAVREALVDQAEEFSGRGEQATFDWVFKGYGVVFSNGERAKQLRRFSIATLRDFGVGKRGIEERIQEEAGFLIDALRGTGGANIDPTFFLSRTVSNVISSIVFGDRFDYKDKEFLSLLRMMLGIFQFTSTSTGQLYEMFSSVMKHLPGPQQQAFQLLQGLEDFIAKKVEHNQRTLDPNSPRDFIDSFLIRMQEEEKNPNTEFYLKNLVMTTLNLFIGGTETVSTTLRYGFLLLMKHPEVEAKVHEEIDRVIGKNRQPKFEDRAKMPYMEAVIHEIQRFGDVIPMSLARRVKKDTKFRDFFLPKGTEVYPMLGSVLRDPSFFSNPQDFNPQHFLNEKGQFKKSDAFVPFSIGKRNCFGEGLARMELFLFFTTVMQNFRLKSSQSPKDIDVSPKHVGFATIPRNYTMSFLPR

[22] = test system: Rattus norvegicus; test: Inhibition of Freund's complete adjuvant-induced arthritis in Lewis rat at 5 mg/kg, po; format: functional, organism-based; parameters: dose 5 mg/kg
[23] = target: P-selectin (Homo sapiens) (UniProt P16109); test: Inhibition of human recombinant P-selectin expressed in CHO cells by Biacore assay at 250 uM
[24] = Oral bioavailability in rat; format: ADME, organism-based; details: in vivo
[25] = target: P-selectin (Homo sapiens) (UniProt P16109); test: Inhibition of human recombinant P-selectin expressed in CHO cells by Biacore assay at 2 mM

Sequence of P-selectin (Homo sapiens) (P16109 whole entry, looked up): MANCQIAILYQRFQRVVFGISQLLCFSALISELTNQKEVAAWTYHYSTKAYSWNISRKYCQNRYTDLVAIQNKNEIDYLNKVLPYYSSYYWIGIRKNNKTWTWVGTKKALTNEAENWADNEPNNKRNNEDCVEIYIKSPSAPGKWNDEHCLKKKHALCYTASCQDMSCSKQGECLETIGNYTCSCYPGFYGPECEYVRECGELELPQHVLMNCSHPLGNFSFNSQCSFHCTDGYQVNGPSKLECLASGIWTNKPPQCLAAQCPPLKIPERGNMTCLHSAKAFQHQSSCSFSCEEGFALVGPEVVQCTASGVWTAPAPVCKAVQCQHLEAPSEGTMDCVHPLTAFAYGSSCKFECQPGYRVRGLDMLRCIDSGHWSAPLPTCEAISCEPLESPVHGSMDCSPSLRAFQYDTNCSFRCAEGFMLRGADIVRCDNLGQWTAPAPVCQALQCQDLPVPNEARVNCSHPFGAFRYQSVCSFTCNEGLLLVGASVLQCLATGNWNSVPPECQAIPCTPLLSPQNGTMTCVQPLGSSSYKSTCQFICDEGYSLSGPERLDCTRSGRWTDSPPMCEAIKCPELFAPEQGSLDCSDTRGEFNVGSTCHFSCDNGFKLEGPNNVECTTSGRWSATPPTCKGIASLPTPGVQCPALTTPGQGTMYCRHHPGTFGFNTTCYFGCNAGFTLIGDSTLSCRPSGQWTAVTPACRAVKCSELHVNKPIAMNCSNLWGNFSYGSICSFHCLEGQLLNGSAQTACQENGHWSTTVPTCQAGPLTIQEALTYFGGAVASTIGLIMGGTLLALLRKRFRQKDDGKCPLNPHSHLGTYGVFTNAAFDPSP
Sequence of Dihydroorotate dehydrogenase (quinone), mitochondrial (Q02127 whole entry): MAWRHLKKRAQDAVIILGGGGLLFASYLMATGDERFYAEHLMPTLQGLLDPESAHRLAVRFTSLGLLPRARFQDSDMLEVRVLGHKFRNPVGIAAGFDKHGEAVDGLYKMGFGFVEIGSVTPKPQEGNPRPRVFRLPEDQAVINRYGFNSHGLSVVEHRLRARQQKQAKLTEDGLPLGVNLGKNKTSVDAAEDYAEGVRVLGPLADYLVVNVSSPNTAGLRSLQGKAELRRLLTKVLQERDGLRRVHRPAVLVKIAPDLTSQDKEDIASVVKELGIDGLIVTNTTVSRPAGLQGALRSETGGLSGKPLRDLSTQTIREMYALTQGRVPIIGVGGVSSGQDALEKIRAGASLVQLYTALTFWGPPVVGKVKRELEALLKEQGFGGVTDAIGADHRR
Sequence of Cytochrome P450 2C9 (P11712 whole entry): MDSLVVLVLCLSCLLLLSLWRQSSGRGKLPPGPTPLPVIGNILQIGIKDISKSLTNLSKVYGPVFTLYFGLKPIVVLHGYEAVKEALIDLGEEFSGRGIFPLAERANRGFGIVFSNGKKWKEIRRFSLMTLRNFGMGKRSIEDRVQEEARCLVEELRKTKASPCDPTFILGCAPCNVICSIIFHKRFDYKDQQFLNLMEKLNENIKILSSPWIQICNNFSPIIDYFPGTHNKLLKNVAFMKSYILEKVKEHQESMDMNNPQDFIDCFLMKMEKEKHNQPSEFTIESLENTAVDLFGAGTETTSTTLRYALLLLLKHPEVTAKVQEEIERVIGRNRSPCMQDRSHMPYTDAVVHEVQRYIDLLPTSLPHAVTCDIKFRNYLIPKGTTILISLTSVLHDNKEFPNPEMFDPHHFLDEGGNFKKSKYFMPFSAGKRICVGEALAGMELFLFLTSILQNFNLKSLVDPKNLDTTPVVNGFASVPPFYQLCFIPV
Sequence of Cytochrome P450 2C19 (P33261 whole entry): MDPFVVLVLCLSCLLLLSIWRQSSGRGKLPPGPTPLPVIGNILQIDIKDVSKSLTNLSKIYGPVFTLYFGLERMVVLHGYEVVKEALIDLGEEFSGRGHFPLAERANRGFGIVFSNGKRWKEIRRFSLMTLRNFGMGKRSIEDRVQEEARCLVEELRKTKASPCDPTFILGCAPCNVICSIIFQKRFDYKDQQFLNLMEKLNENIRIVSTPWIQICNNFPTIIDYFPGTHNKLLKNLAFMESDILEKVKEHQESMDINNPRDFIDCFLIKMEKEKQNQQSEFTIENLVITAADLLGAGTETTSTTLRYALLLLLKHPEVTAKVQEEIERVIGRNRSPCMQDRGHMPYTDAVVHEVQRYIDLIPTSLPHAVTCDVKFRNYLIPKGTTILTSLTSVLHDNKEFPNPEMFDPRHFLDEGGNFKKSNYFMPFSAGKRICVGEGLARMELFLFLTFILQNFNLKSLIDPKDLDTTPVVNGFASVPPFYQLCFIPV
Sequence of Cytochrome P450 3A4 (P08684 whole entry): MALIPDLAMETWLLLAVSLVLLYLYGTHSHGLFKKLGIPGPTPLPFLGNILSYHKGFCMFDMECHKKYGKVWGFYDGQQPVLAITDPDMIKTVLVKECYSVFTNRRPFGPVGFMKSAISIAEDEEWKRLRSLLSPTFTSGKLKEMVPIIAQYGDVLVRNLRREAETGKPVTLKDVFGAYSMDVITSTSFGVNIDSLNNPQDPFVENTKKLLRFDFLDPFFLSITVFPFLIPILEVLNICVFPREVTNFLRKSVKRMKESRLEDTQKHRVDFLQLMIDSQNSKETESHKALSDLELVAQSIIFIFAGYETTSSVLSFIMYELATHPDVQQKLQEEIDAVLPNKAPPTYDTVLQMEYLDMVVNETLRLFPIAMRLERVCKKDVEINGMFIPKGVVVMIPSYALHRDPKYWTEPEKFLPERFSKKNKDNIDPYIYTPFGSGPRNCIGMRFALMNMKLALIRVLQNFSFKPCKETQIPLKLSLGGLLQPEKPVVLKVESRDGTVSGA
Sequence of Cytochrome P450 2D6 (P10635 whole entry): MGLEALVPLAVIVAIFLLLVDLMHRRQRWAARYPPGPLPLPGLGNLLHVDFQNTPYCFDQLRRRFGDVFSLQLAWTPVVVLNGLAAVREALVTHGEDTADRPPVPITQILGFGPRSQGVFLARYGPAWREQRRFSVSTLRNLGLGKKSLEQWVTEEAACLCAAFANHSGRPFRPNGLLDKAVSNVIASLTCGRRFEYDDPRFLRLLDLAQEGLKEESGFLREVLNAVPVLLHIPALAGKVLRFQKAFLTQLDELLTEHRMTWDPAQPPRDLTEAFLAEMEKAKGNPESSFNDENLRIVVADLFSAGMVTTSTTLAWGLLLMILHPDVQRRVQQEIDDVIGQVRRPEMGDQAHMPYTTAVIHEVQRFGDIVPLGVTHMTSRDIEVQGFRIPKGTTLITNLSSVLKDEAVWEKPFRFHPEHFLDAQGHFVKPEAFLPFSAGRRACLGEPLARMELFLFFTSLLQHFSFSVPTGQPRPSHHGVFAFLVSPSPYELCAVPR
Sequence of Dihydroorotate dehydrogenase (quinone), mitochondrial (Rattus norvegicus) (Q63707 whole entry): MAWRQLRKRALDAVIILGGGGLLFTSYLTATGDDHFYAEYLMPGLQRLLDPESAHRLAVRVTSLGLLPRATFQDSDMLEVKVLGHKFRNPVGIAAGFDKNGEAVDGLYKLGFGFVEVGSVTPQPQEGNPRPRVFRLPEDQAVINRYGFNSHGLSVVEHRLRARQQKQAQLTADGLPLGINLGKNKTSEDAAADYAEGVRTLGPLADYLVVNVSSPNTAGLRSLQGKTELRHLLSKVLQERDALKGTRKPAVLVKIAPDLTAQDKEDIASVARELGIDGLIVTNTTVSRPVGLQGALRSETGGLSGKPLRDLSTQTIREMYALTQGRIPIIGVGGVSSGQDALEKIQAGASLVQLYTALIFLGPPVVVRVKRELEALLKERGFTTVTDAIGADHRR

Structure (SMILES): Cc1ccc2c(C(=O)O)c(O)c(-c3ccc(OC(F)(F)F)cc3)nc2c1C
- pIC50 [2]: 4.82

Structure (SMILES): COc1c(-c2ccccc2)nc2ccccc2c1C(=O)O
- inhibition [1]: 22%

Structure (SMILES): Cc1ccc2c(C(=O)O)c(O)c(-c3cccc(OC(F)(F)F)c3)nc2c1C
- pIC50 [2]: 5.30

Structure (SMILES): Nc1c(-c2ccc(-c3ccccc3)cc2)nc2ccc(F)cc2c1C(=O)O
- pIC50 [3]: 7.92
- LD50 [7]: 20.5 mg/kg

Structure (SMILES): Cc1ccc2c(C(=O)O)c(O)c(-c3cccc(Cl)c3)nc2c1C
- pIC50 [2]: 5.30

Structure (SMILES): Cc1ccc2c(C(=O)O)c(O)c(-c3ccc(Br)cc3)nc2c1C
- AUC [4]: 6.52 µM·h
- clearance [5]: 6.2 mL/min/kg
- Cmax [6]: 5.5 µM
- pIC50 [2]: 5.22

Structure (SMILES): CC(C)c1cccc2c(C(=O)O)c(O)c(-c3ccc(Cl)cc3)nc12
- pIC50 [3]: 3.55
- AUC [4]: 6.7 µM·h
- clearance [5]: 6.5 mL/min/kg
- Cmax [6]: 7 µM
- pIC50 [2]: 5.33

Structure (SMILES): O=C(O)c1c(O)c(-c2ccc(Cl)cc2)nc2ccc(OC(F)(F)F)cc12
- pIC50 [2]: 4.60

Structure (SMILES): COc1ccc2cc([C@H](C)C(=O)O)ccc2c1 [NAPROXEN]
- inhibition in vivo at 10 mg/kg [8]: 68.3%

Structure (SMILES): CN(C)c1ccc(-c2cccc3c(C(=O)O)c(O)c(-c4ccc(Cl)cc4)nc23)cc1
- pIC50 [2]: 4.70

Structure (SMILES): Cc1cccc2c(C(=O)O)c(O)c(-c3ccc(Cl)cc3)nc12
- pIC50 [3]: 3.67
- pIC50 [2]: 4.89

Structure (SMILES): Cc1ccc(-c2cc(C(F)(F)F)nn2-c2ccc(S(N)(=O)=O)cc2)cc1
- Activity [22]: Active

Structure (SMILES): O=C(O)c1c(O)c(-c2ccc(Cl)cc2)nc2ccc(-c3ccsc3)cc12
- pIC50 [3]: 3.87

Structure (SMILES): CCN(CC)c1ccc(-c2nc3c(C)c(C)ccc3c(C(=O)O)c2O)cc1
- pIC50 [2]: 4.72

Structure (SMILES): CCC(C)c1cccc2c(C(=O)O)c(O)c(-c3ccc(Cl)cc3)nc12 (stereo not drawn)
- pIC50 [3]: 3.52
- AUC [4]: 3.45 µM·h
- clearance [5]: 13.3 mL/min/kg
- Cmax [6]: 6.7 µM
- pIC50 [2]: 5.52

Structure (SMILES): Cc1ccc2c(C(=O)O)c(O)c(-c3ccc(C(C)C)cc3)nc2c1C
- pIC50 [2]: 5.10

Structure (SMILES): O=C(O)c1cc(-c2ccccc2)nc2ccccc12
- inhibition [1]: 22%

Structure (SMILES): CCc1cccc2c(C(=O)O)c(O)c(-c3ccc(Cl)cc3)nc12
- pIC50 [2]: 5.00

Structure (SMILES): Cc1cc(OC(F)(F)F)cc2c(C(=O)O)c(O)c(-c3ccc(Cl)cc3)nc12
- pIC50 [2]: 4.81

The next lines start with results.

- Activity [1]: inactive
Structure (SMILES): Oc1cc2ccccc2nc1-c1ccccc1

- pIC50 [3]: 3.88
Structure (SMILES): O=C(O)c1c(O)c(-c2ccc(Cl)cc2)nc2c(Br)cccc12
- pIC50 [2]: 4.70

- AUC [4]: 8.58 µM·h
- clearance [5]: 4.7 mL/min/kg
- Cmax [6]: 9 µM
Structure (SMILES): Cc1ccc2c(C(=O)O)c(O)c(-c3ccc(C(F)(F)F)cc3)nc2c1C
- pIC50 [2]: 5.15

- pIC50 [3]: 3.87
Structure (SMILES): O=C(O)c1ccc(-c2ccc3nc(-c4ccc(Cl)cc4)c(O)c(C(=O)O)c3c2)cc1

- pIC50 [3]: 3.87
Structure (SMILES): O=C(O)c1c(O)c(-c2ccc(Cl)cc2)nc2c(C(F)(F)F)cccc12
- pIC50 [2]: 4.89

- pIC50 [3]: 3.89
Structure (SMILES): O=C(O)c1c(O)c(-c2ccc(Cl)cc2)nc2c(OC(F)(F)F)cccc12
- pIC50 [2]: 4.98

- pIC50 [3]: 3.51
Structure (SMILES): COc1cccc2c(C(=O)O)c(O)c(-c3ccc(Cl)cc3)nc12

- pIC50 [9]: 4.77
- pIC50 [10]: 5.15
- pIC50 [13]: 6.00
- AUC [4]: 7.68 µM·h
- clearance [5]: 6.2 mL/min/kg
- pIC50 [15]: 5.40
- Cmax [6]: 13 µM
- pIC50 [16]: 5.05
- pIC50 [17]: 5.70
- concentration [19]: 1.8 µM
- pIC50 [21]: 4.70
Structure (SMILES): Cc1ccc2c(C(=O)O)c(O)c(-c3ccc(Cl)cc3)nc2c1C
- inhibition in vivo at 5 mg/kg [11]: 10.3%
- inhibition in vivo at 1 mg/kg [12]: 12.8%
- Activity [14]: Non-toxic
- inhibition in vivo at 0.5 mg/kg [18]: 10.8%
- inhibition in vivo at 50 mg/kg [20]: 15.6%
- inhibition in vivo at 10 mg/kg [8]: 14.1%
- pIC50 [2]: 5.00

- inhibition [23]: 39%
Structure (SMILES): COc1ccc(-c2ccc3nc(-c4ccc(Cl)cc4)c(O)c(C(=O)O)c3c2)cc1

- pIC50 [9]: 3.82
- pIC50 [10]: 4.26
- pIC50 [13]: 3.84
- AUC [4]: 3.93 µM·h
- clearance [5]: 9.1 mL/min/kg
- pIC50 [15]: 3.30
- Cmax [6]: 9 µM
- pIC50 [16]: 5.32
- pIC50 [17]: 5.09
- bioavailability [24]: 24%
- concentration [19]: 0.5 µM
- pIC50 [21]: 3.30
Structure (SMILES): O=C(O)c1c(O)c(-c2ccc(Cl)cc2)nc2c(-c3ccccc3)cccc12
- Activity [14]: Non-toxic
- pIC50 [2]: 5.35

- inhibition [25]: 38%
Structure (SMILES): O=C(O)c1c(O)c(-c2ccc(Cl)cc2)nc2ccc(Cl)cc12

- pIC50 [3]: 3.82
Structure (SMILES): COc1ccc2c(C(=O)O)c(O)c(-c3ccc(Cl)cc3)nc2c1

- pIC50 [3]: 3.85
Structure (SMILES): O=C(O)c1c(O)c(-c2ccc(Cl)cc2)nc2c(Cl)cccc12
- pIC50 [2]: 4.66

- pIC50 [3]: 3.64
Structure (SMILES): O=C(O)c1c(O)c(-c2ccc(Cl)cc2)nc2ccc(-c3ccccc3)cc12

Reference: ChEMBL document CHEMBL1139219, “Synthesis and biological evaluation of quinoline salicylic acids as P-selectin antagonists” (J Med Chem, 2007)
